Test results published in patent publication US9938258B2 (Karyopharm Therapeutics Inc., priority 2012, dated 2018).

Key:
3T3 cells = experiment: MTT cell proliferation assay, 3T3; type: cell-based, mouse; conditions: Mus musculus, NIH3T3, 3T3 cells; eight concentrations 1 nM to 30 μM; incubation approximately 64-72 hours; read-out: MTT Assay IC50, 3T3
Procedure: (§1) The MTT cell proliferation assay was used to study the cytotoxic properties of the compounds. The assay was performed according to the method described by Roche Molecular Biochemicals, with minor modifications. The assay is based on the cleavage of the tetrazolium salt, MTT, in the presence of an electron-coupling reagent. The water-insoluble formazan salt produced must be solubilized in an additional step. Cells grown in a 96-well tissue culture plate were incubated with the MTT solution for approximately 4 hours. After this incubation period, a water-insoluble formazan dye formed. After solubilization, the formazan dye was quantitated using a scanning multi-well spectrophotometer (ELISA reader). […] The cells were seeded at 5,000-10,000 cells in each well of 96-well plate in 100 μL of fresh culture medium and were allowed to attach overnight. The stock solutions of the compounds were diluted in 100 μL cell culture medium to obtain eight concentrations of each test compound, ranging from 1 nM to 30 μM. […] All optical densities were measured at 490 nm using a Vmax Kinetic Microplate Reader (Molecular Devices). In most cases, the assay was performed in duplicate and the results were presented as a mean percent inhibition to the negative control±SE. The following formula was used to calculate the percent of inhibition: Inhibition (%)=(1-(ODo/OD)) ×100.
(§2) The compounds were tested against MS751, Z138 and 3T3 cells. The MS751 cell line is derived from a metastasis to lymph node of human cervix from a patient diagnosed with squameous cell carcinoma of the cervix. The Z138 cell line is a mature B-cell acute lymphoblastic leukemia cell line derived from a patient with chronic lumphocytic leukemia. 3T3 cells are standard fibroblast cells; they were originally isolated from Swiss mouse embryo tissue.

Z138 cells = experiment: MTT cell proliferation assay, Z138; type: cell-based; conditions: Homo sapiens, Z-138, Z138 cells; eight concentrations 1 nM to 30 μM; incubation approximately 64-72 hours; read-out: MTT Assay IC50, Z138
Procedure: as §1, §2

MS751 cells = experiment: MTT cell proliferation assay, MS751; type: cell-based, human; conditions: Homo sapiens, MS751, MS751 cells; eight concentrations 1 nM to 30 μM; incubation approximately 64-72 hours; read-out: MTT Assay IC50, MS751
Procedure: as §1, §2

Structure (SMILES)	IC50 (3T3 cells) [µM]	IC50 (Z138 cells) [µM]	IC50 (MS751 cells) [µM]
CC(=O)c1ccc(-c2cc(Cl)c3c(c2)CC(CN(C)C(=O)/C=C/c2cccnc2)O3)s1 (stereo not drawn) [Compound 125, (E)-N-((5-(5-acetylthiophen-2-yl)-7-chloro-2,3-dihydrobenzofuran-2-yl)methyl)-N-methyl-3-(pyridin-3-yl)acrylamide]	5 to 30	5 to 30	5 to 30
CCOC(=O)c1ccc(-c2cc(Cl)c3c(c2)CC(CNC(=O)/C=C/c2cccnc2)O3)cc1 (stereo not drawn) [Compound 128, (E)-ethyl 4-(7-chloro-2-((3-(pyridin-3-yl)acrylamido)methyl)-2,3-dihydrobenzofuran-5-yl)benzoate]	0.1 to 5	< 0.1	0.1 to 5
O=C(/C=C/c1cccnc1)NCC1Cc2cc(-c3ccc(C(=O)O)cc3)cc(Cl)c2O1 (stereo not drawn) [Compound 129, (E)-4-(7-chloro-2-((3-(pyridin-3-yl)acrylamido)methyl)-2,3-dihydrobenzofuran-5-yl)benzoic acid]	5 to 30	5 to 30	5 to 30
CC(=O)c1ccc(-c2cc(C)c3c(c2)CC(CNC(=O)/C=C/c2cccnc2)O3)s1 (stereo not drawn) [Compound 138, (E)-N-((5-(5-acetylthiophen-2-yl)-7-methyl-2,3-dihydrobenzofuran-2-yl)methyl)-3-(pyridin-3-yl)acrylamide]	0.1 to 5	< 0.1	< 0.1
CC(=O)c1ccc(-c2cc(Cl)c3c(c2)CC(CNC(=O)/C=C/c2ccc(C)nc2)O3)s1 (stereo not drawn) [Compound 146, (E)-N-((5-(5-acetylthiophen-2-yl)-7-chloro-2,3-dihydrobenzofuran-2-yl)methyl)-3-(6-methylpyridin-3-yl)acrylamide]	> 30	> 30	5 to 30
CC(=O)c1ccc(-c2cc(Cl)c3c(c2)CC(CNC(=O)/C=C/c2c(C)noc2C)O3)s1 (stereo not drawn) [Compound 147, (E)-N-((5-(5-acetylthiophen-2-yl)-7-chloro-2,3-dihydrobenzofuran-2-yl)methyl)-3-(3,5-dimethylisoxazol-4-yl)acrylamide]	> 30	0.1 to 5	0.1 to 5
CC(=O)c1ccc(-c2cc(Cl)c3c(c2)CC(CNC(=O)/C=C/c2cnc(C)s2)O3)s1 (stereo not drawn) [Compound 148, (E)-N-((5-(5-acetylthiophen-2-yl)-7-chloro-2,3-dihydrobenzofuran-2-yl)methyl)-3-(2-methylthiazol-5-yl)acrylamide]	> 30	> 30	5 to 30
CC(=O)c1ccc(-c2cc(Cl)c3c(c2)CC(CNC(=O)/C=C/c2cnn(C)c2)O3)s1 (stereo not drawn) [Compound 149, (E)-N-((5-(5-acetylthiophen-2-yl)-7-chloro-2,3-dihydrobenzofuran-2-yl)methyl)-3-(1-methyl-1H-pyrazol-4-yl)acrylamide]	> 30	> 30	> 30
CC(=O)c1ccc(-c2cc(Cl)c3c(c2)CC(CNC(=O)/C=C/c2ccc(C)o2)O3)s1 (stereo not drawn) [Compound 150, (E)-N-((5-(5-acetylthiophen-2-yl)-7-chloro-2,3-dihydrobenzofuran-2-yl)methyl)-3-(5-methylfuran-2-yl)acrylamide]	> 30	> 30	> 30
CC(=O)c1ccc(-c2cc(Cl)c3c(c2)CC(CNC(=O)/C=C/c2cnc4ccccc4n2)O3)s1 (stereo not drawn) [Compound 151, (E)-N-((5-(5-acetylthiophen-2-yl)-7-chloro-2,3-dihydrobenzofuran-2-yl)methyl)-3-(quinoxalin-2-yl)acrylamide]	> 30	> 30	> 30
CC(=O)c1ccc(-c2cc(Cl)c3c(c2)CC(CNC(=O)/C=C/c2sccc2C)O3)s1 (stereo not drawn) [Compound 152, (E)-N-((5-(5-acetylthiophen-2-yl)-7-chloro-2,3-dihydrobenzofuran-2-yl)methyl)-3-(3-methylthiophen-2-yl)acrylamide]	> 30	> 30	> 30
CC(=O)c1ccc(-c2cc(Cl)c3c(c2)CC(CNC(=O)/C=C/c2cc[nH]c2)O3)s1 (stereo not drawn) [Compound 153, (E)-N-((5-(5-acetylthiophen-2-yl)-7-chloro-2,3-dihydrobenzofuran-2-yl)methyl)-3-(1H-pyrrol-3-yl)acrylamide]	> 30	> 30	> 30
CC(=O)c1ccc(-c2cc(Cl)c3c(c2)CC(CNC(=O)/C=C/c2c(C)nn(CC(C)C)c2Cl)O3)s1 (stereo not drawn) [Compound 154, (E)-N-((5-(5-acetylthiophen-2-yl)-7-chloro-2,3-dihydrobenzofuran-2-yl)methyl)-3-(5-chloro-1-isobutyl-3-methyl-1H-pyrazol-4-yl)acrylamide]	> 30	> 30	> 30
CCn1cc(/C=C/C(=O)NCC2Cc3cc(-c4ccc(C(C)=O)s4)cc(Cl)c3O2)cn1 (stereo not drawn) [Compound 155, (E)-N-((5-(5-acetylthiophen-2-yl)-7-chloro-2,3-dihydrobenzofuran-2-yl)methyl)-3-(1-ethyl-1H-pyrazol-4-yl)acrylamide]	> 30	> 30	> 30
CC(=O)c1ccc(-c2cc(Cl)c3c(c2)CC(CNC(=O)/C=C/c2cn(C)nc2C)O3)s1 (stereo not drawn) [Compound 156, (E)-N-((5-(5-acetylthiophen-2-yl)-7-chloro-2,3-dihydrobenzofuran-2-yl)methyl)-3-(1,3-dimethyl-1H-pyrazol-4-yl)acrylamide]	> 30	> 30	> 30
CC(=O)c1ccc(-c2cc(Cl)c3c(c2)CC(CNC(=O)/C=C/c2cnn(C)c2C)O3)s1 (stereo not drawn) [Compound 157, (E)-N-((5-(5-acetylthiophen-2-yl)-7-chloro-2,3-dihydrobenzofuran-2-yl)methyl)-3-(1,5-dimethyl-1H-pyrazol-4-yl)acrylamide]	> 30	> 30	> 30
CC(=O)c1ccc(-c2cc(Cl)c3c(c2)CC(CNC(=O)/C=C/c2csc(C)n2)O3)s1 (stereo not drawn) [Compound 159, (E)-N-((5-(5-acetylthiophen-2-yl)-7-chloro-2,3-dihydrobenzofuran-2-yl)methyl)-3-(2-methylthiazol-4-yl)acrylamide]	> 30	> 30	> 30
CC(=O)c1ccc(-c2cc(Cl)c3c(c2)CC(CNC(=O)/C=C/c2c(C)nn(C)c2Cl)O3)s1 (stereo not drawn) [Compound 160, (E)-N-((5-(5-acetylthiophen-2-yl)-7-chloro-2,3-dihydrobenzofuran-2-yl)methyl)-3-(5-chloro-1,3-dimethyl-1H-pyrazol-4-yl)acrylamide]	> 30	> 30	> 30
CC(=O)c1ccc(-c2cc(Cl)c3c(c2)CC(CNC(=O)/C=C/c2c(C)nc4sc(C)cn24)O3)s1 (stereo not drawn) [Compound 161, (E)-N-((5-(5-acetylthiophen-2-yl)-7-chloro-2,3-dihydrobenzofuran-2-yl)methyl)-3-(2,6-dimethylimidazo[2,1-b]thiazol-5-yl)acrylamide]	> 30	> 30	> 30
CC(OC(=O)CCCC[C@@H]1SC[C@@H]2NC(=O)N[C@@H]21)c1ccc(-c2cc(Cl)c3c(c2)CC(CNC(=O)/C=C/c2cccnc2)O3)s1 (stereo partly drawn) [Compound 162, 1-(5-(7-chloro-2-(((E)-3-(pyridin-3-yl)acrylamido)methyl)-2,3-dihydrobenzofuran-5-yl)thiophen-2-yl)ethyl 5-((3aS,4S,6aR)-2-oxohexahydro-1H-thieno[3,4-d]imidazol-4-yl)pentanoate]	0.1 to 5	< 0.1	< 0.1
CC(=O)c1ccc(-c2cc(Cl)c3c(c2)CC(CNC(=O)/C=C/c2sccc2Cl)O3)s1 (stereo not drawn) [Compound 163, (E)-N-((5-(5-acetylthiophen-2-yl)-7-chloro-2,3-dihydrobenzofuran-2-yl)methyl)-3-(3-chlorothiophen-2-yl)acrylamide]	> 30	> 30	> 30
CC(=O)c1ccc(-c2cc(Cl)c3c(c2)CC(CNC(=O)/C=C/c2nccn2C)O3)s1 (stereo not drawn) [Compound 164, (E)-N-((5-(5-acetylthiophen-2-yl)-7-chloro-2,3-dihydrobenzofuran-2-yl)methyl)-3-(1-methyl-1H-imidazol-2-yl)acrylamide]	> 30	> 30	> 30
CC(=O)c1ccc(-c2ccc(Cl)c3c2CC(CNC(=O)/C=C/c2cccnc2)O3)s1 (stereo not drawn) [Compound 173, (E)-N-((4-(5-acetylthiophen-2-yl)-7-chloro-2,3-dihydrobenzofuran-2-yl)methyl)-3-(pyridin-3-yl)acrylamide]	0.1 to 5	0.1 to 5	0.1 to 5
